The source of these data is patent US20160312185A1, “METHOD FOR PRODUCING MEGAKARYOCYTES AND PLATELETS” (FUNDACIÓN PÚBLICA ANDALUZA PROGRESO Y SALUD, priority 2013, published 2016).

The test system of the test is AND1 PSC. Kind of test: Megakaryocyte precursor analysis (CD34+ and CD34+CD41a+) in EBs by flow cytometry. The following applies: wild-type AND1 PSCs, TSA 10 and 100 nM from start, day 14, vs DMSO. It counts as cell-based, human. On the procedure: The emergence of megakaryocyte precursor cells (CD34+ and CD34+ CD41a^+) during EB differentiation stages on days 10, 14 and 17 of differentiation was evaluated. One third of the EBs growing in a 6-well plate were collected and washed once with PBS. Similarly, to evaluate the effect of Trichostatin A (TSA) on differentiation, the EBs were treated with 10 nM or 100 nM of DMSO or TSA for 14 days. In both cases, the EBs were disassociated with collagenase B and disassociation buffer as described previously. A homogenous cell suspension was obtained after washing the EBs with PBS and being carefully resuspended in […] of PBS with 2% FCS and 2 mM of EDTA until no clumps were observed. The disassociated cells were stained with anti-CD34-PECy7 antibodies (Miltenyi Biotec,
Bergisch Gladbach, Germany) and anti-CD41 a-PE antibodies and 7AAD. Living cells identified by 7AAD exclusion were analyzed using a FACSCanto II flow cytometer.
Background: Flow cytometry measures light scatter and fluorescence of single cells or particles in a stream.

With `CC(/C=C/C(=O)NO)=C\[C@@H](C)C(=O)c1ccc(N(C)C)cc1` [Trichostatin A], the “CD34+ CD41+ megakaryocyte progenitors” value was “accelerates the emergence of megakaryocyte progenitors”. The “CD34+ CD41+ megakaryocyte progenitors” value (listed as TSA) is reported as “increase”.
